≈ marks a conversion by molar mass, not a printed value.
How the values were obtained:
[1] = test system: MRSA USA400 inside murine macrophage cells (J774); test: Intracellular MRSA infection model in J774 macrophage cells; conditions: infected macrophage cells; vancomycin 2 μg/mL (4×MIC)
[2] = test system: S. aureus (ATCC 6538) biofilm; conditions: antibiotic alone
[3] = test system: stationary-phase MRSA; assay type: cell-based, S. aureus; conditions: checkerboard assay, MRSA growth inhibition
Protocol: To monitor the response of bacteria to laser treatment alone, antibiotic treatment alone, or their combinations, bacterial growth was continuously monitored overnight (18 hours with an interval of 30 min at 37° C.) by measuring optical density at 600 nm (OD600). Depending on the specific assay applied, the bacterial cells were suspended in 100 or 200 μl TSB medium under different treatment schemes (antibiotic alone, laser treatment alone, antibiotic plus laser treatment) with a final concentration of ˜10^5 CFU/ml. Bacterial growth was defined as OD600≥0.1.
Stationary-phase bacterial cells was washed and resuspended in 1×PBS at its original concentration. […] The treated droplet was collected and resuspended into 5 ml TSB (1:1000 dilution) for each group. Corresponding groups without laser treatment were also conducted for comparison. The bacterial suspensions were transferred to a 96-well plate with antibiotics supplemented into with the first row of the 96-well plate for eight two-fold serial dilution starting at a desired antibiotic concentration (e.g. ofloxacin: 2 μg/ml). After serial dilution, bacterial growth within the same well plate was monitored by a plate reader for 18 hours (OD600, 37° C.). The checkerboard assay was used for groups with laser treatment alone or laser plus antibiotic treatment. Two independent experiments of checkerboard assay were performed for each antibiotic with or without laser treatment. Based on the readout of OD600, a heat map was created to evaluate the antibiotic potentiation or synergistic effect enabled by STX photolysis.
Based on the checkerboard results, the fractional inhibitory concentration index (FICI), a synergy evaluation method between two antibiotics, was calculated as below: FICI=MIC of antibiotic A in combination/MIC of antibiotic A alone+MIC of antibiotic B in combination/MIC of antibiotic B alone. The interaction of the two antibiotics was defined as below: synergy if FICI≤0.5, no interaction if 0.5<FICI≤4, antagonism if FICI>4^46. […] Considering this reason, the synergy calculation was simplified as below: FICI=MIC of antibiotic A in combination with laser treatment/MIC of antibiotic A alone with synergy defined by FICI≤0.5.

[4] = test system: VRSA NR-46419 (VRSA 9); test: MIC by standard broth-dilution method; assay type: cell-based, S. aureus; conditions: Staphylococcus aureus, N = 3
Text: (§1) For each measurement, three independent replicates were applied.

[5] = test system: MRSA USA300; test: In vivo mice skin infection model (daptomycin, pulsed laser); design: species or system BALB/c mice
Protocol: The in vivo mice experiment was conducted following protocols approved by Boston University Animal Care and Use Committee (BUACUC). To initiate the formation of a skin wound, five groups (N=5) of eight-week-old female BALB/c mice (obtained from the Jackson Laboratory, ME, USA) were disinfected with ethanol (70%) and shaved on the middle of their back (approximately a one-inch by one-inch square region around the injection site) one day prior to infection as described from a reported procedure^45. To prepare the bacterial inoculum, an aliquot of overnight culture of MRSA USA300 was transferred to fresh TSB and shaken at 37° C. until an OD600 value of ˜1.0 was achieved. The cells were centrifuged, washed once with 1×PBS, re-centrifuged, and then re-suspended in 1×PBS. Mice subsequently received an intradermal injection (40 μl) containing ˜10^9 CFU/ml MRSA USA300. An open wound formed at the site of injection for each mouse, ˜48 hours post-infection. Topical treatment was initiated subsequently with each group of mice receiving the following: daptomycin (1%, using glycerol as the vehicle), pulsed laser (1 cm diameter illumination area, 10 min treatment time, 120 mW), or a combination of pulsed laser and daptomycin. One group of mice was left as the control. […] Data were analyzed via an unpaired t-test, utilizing Origin 2019b (OriginLab Corporation).

[6] = test system: VRSA and multidrug-resistant MRSA clinical isolates; test: Time-killing assay on resistant clinical isolates; assay type: cell-based, S. aureus; conditions: 10 MIC daptomycin and laser treatment
Protocol: (§2) To quantify viable bacterial cells, CFU experiments were performed. 100 μl of sample analyte was transferred into a 96-well plate and then three or four ten-fold serial dilution achieved by transferring 20 μl bacterial culture into 180 μl 1×PBS in the next dilution row. After serial dilution, an aliquot (4 μl) from each well was spotted onto sterile TSA plates. After incubating the plates overnight (˜18 hours) at 37° C., the colonies were enumerated, and cell number was calculated in CFU/ml. For each CFU enumeration experiment, three independent replicates were applied.
Stationary-phase MRSA was prepared, washed and resuspended in 1×PBS at two-times of its original concentration. […] After laser treatment, the droplets were resuspended into 200 μl of 1×PBS (1:40 dilution) supplemented with antibiotics at different concentrations in a mini centrifuge tube (89166-278, VWR international). For example, daptomycin was added into MRSA solution after laser treatment at desired concentration of 0×MIC, 5×MIC, 10×MIC, 30×MIC, or 100×MIC supplemented with 50 μg/ml CaCl2). Corresponding groups without laser treatment were also conducted for comparison. These tubes were incubated within an orbital incubator (37° C., 200 rpm) for different incubation time. At each specific time point, 40 μl of aliquot from each group was transferred to a 96-well plate for follow-up CFU enumerating assay. […]

[7] = test system: stationary-phase MRSA; test: Daptomycin-BODIPY membrane insertion assay; assay type: cell-based, S. aureus; conditions: daptomycin labeled with BODIPY
Protocol: To study how the membrane fluidity change affects the insertion of membrane-targeting antibiotics, we applied daptomycin-BODIPY membrane insertion assay detailed as below. Firstly, we conjugated daptomycin with a fluorescent dye, BODIPY STP ester (B10006, Thermo Fisher Scientific). Briefly, 10 mg of daptomycin (103060-53-3, Acros Organics) was dissolved into 1 ml of 0.1 M sodium bicarbonate solution. Then 100 μl of BODIPY STP ester (B10006, Thermo Fisher Scientific, stock: 1 mg/ml in DMSO) was added to the daptomycin solution drop by drop. Then the mixed solution reacted under stirring at room temperature for 1 hour. Afterwards, the solution was under overnight dialysis against extensive 0.1 M sodium bicarbonate solution. After dialysis, the mixed solution was lyophilized. […] After treatment, bacterial droplets were collected into 985 μl of sterile pre-warned TSB medium containing 150 μg/ml of CaCl2. 10 μl of daptomycin-BODIPY (stock: 3 mg/ml in 1×PBS) was added to the above solution, and incubated for 30 min at 37° C. […] Confocal laser scanning microscope (FV3000, Olympus) was conducted to quantify daptomycin-BODIPY distribution and its signal intensity at an excitation wavelength of 488 nm. Quantitative analysis of the signal from individual MRSA cells was performed among groups with different laser treatment time.

[8] = test system: stationary-phase MRSA; test: Time-killing assay in PBS with or without pulsed laser (CFU enumeration); assay type: cell-based, S. aureus; conditions: after 6 hours in PBS
Protocol: as §2
Stationary-phase MRSA was prepared, washed and resuspended in 1×PBS at two-times of its original concentration. […] After laser treatment, the droplets were resuspended into 200 μl of 1×PBS (1:40 dilution) supplemented with antibiotics at different concentrations in a mini centrifuge tube (89166-278, VWR international). For example, daptomycin was added into MRSA solution after laser treatment at desired concentration of 0×MIC, 5×MIC, 10×MIC, 30×MIC, or 100×MIC supplemented with 50 μg/ml CaCl2). Corresponding groups without laser treatment were also conducted for comparison. These tubes were incubated within an orbital incubator (37° C., 200 rpm) for different incubation time. At each specific time point, 40 μl of aliquot from each group was transferred to a 96-well plate for follow-up CFU enumerating assay. In the case of tobramycin, additional antibiotic washing by 1×PBS was performed before the CFU experiment to avoid antibiotic interference. For time-killing assay in fresh human whole blood, similar protocol was followed as above, except that 1×PBS was replaced by fresh human whole blood and the initial stationary-phase MRSA solution was diluted by ten times with a concentration of ˜10^7 CFU/ml.

[9] = test system: MRSA NRS384 (MRSA USA 300); test: MIC by standard broth-dilution method; assay type: cell-based, S. aureus; conditions: Staphylococcus aureus; MRSA NRS384 (MRSA USA 300); N = 3; read-out: MIC
Text: as §1

| Compound | killing of intracellular MRSA 400 (CFU) [1] | MRSA killed inside biofilm [2] [%] | synergism between laser treatment and antibiotic [3] | MIC [4] [µg/mL] | cell killing in infected skin (CFU) ([5]; 10 mg/ml daptomycin alone, topical) [%] | cell killing in infected skin (CFU) ([5]; 10 mg/ml daptomycin plus 10 min laser) | eradication by synergistic therapy [6] | cellular uptake / membrane insertion with laser treatment vs untreated [7] | reduction of stationary-phase MRSA ([8]; 10 MIC with 5 min laser treatment) | reduction of stationary-phase MRSA ([8]; antibiotic alone at 100 MIC) [log] | MIC [9] [µg/mL] |
| --- | --- | --- | --- | --- | --- | --- | --- | --- | --- | --- | --- |
| CN[C@H](CC(C)C)C(=O)N[C@H]1C(=O)N[C@@H](CC(N)=O)C(=O)N[C@H]2C(=O)N[C@H]3C(=O)N[C@H](C(=O)N[C@H](C(=O)O)c4cc(O)cc(O)c4-c4cc3ccc4O)[C@H](O)c3ccc(c(Cl)c3)Oc3cc2cc(c3O[C@@H]2O[C@H](CO)[C@@H](O)[C@H](O)[C@H]2O[C@H]2C[C@](C)(N)[C@H](O)[C@H](C)O2)Oc2ccc(cc2Cl)[C@H]1O [Vancomycin, vancomycin] | no effect | 70 | no synergism | 256 (≈ 177 µM) | – | – | – | – | – | – | – |
| CCCCCCCCCC(=O)N[C@@H](Cc1c[nH]c2ccccc12)C(=O)N[C@H](CC(N)=O)C(=O)N[C@@H](CC(=O)O)C(=O)N[C@@H]1C(=O)NCC(=O)N[C@@H](CCCN)C(=O)N[C@@H](CC(=O)O)C(=O)N[C@H](C)C(=O)N[C@@H](CC(=O)O)C(=O)NCC(=O)N[C@H](CO)C(=O)N[C@@H]([C@H](C)CC(=O)O)C(=O)N[C@@H](CC(=O)c2ccccc2N)C(=O)O[C@@H]1C [Daptomycin, daptomycin] | – | – | – | – | 81 | around 95% | effective in eradicating | significantly more daptomycin uptake | more than 3.5 log | 1 | 8 (≈ 4.94 µM) |

Source: patent publication US20200306295A1, “METHOD AND DEVICE FOR ANNIHILATION OF Staphylococcus aureus” (priority 2017, published 2020)
